Measured values as given in US20110020460A1, “GPR 119 MODULATORS” (Pfizer Inc., priority 2009, published 2011).
Several values for one entry are separate records, joined by “and”; a condition that tells them apart may be missing. Equal values may be shown once. Read-outs that look alike come from different tables or passages of the source.

Assays:
[1] = target: T1, human GPR119 (Homo sapiens, UniProt Q8TDV5); experiment: beta-lactamase reporter functional assay (hGPR119 HEK293-CRE beta-lactamase cells); format: cell-based; conditions: one value per run; for EC50: hGPR119 HEK293-CRE beta-lactamase cells, read-out: Human B-lactamase Functional EC50; for Intrinsic Activity* (B-lactamase) / Emax: percent of maximal activity relative to standard GPR119 agonist (WO2005121121) at 10 microM; for Emax: read-out: Intrinsic Activity* (B-lactamase)
T1 construct: host or cells: HEK293-CRE-beta-lactamase
T1 sequence (Q8TDV5 1-335): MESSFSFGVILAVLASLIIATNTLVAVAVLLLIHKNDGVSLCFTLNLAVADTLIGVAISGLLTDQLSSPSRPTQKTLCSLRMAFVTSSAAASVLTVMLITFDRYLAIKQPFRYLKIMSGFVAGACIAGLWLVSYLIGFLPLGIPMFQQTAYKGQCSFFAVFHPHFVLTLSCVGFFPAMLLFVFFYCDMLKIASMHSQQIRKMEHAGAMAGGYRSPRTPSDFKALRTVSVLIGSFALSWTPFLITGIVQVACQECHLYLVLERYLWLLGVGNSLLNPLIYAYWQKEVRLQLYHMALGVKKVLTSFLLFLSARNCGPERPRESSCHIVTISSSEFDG
Protocol: The assay for GPR119 agonists utilizes a cell-based (hGPR119 HEK293-CRE beta-lactamase) reporter construct where agonist activation of human GPR119 is coupled to beta-lactamase production via a cyclic AMP response element (CRE). GPR119 activity is then measured utilizing a FRET-enabled beta-lactamase substrate, CCF4-AM (Live Blazer FRET-B/G Loading kit, Invitrogen cat #K1027). […] After 4 hours the plating medium was removed and replaced with 40 microL of assay medium (Assay medium is plating medium without potassium clavulanate and HIFBS). Varying concentrations of each compound to be tested was then added in a volume of 10 microL (final DMSO≦0.5%) and the cells were incubated for 16 hours at 37 degrees Celsius in a humidified environment containing 5% carbon dioxide. Plates were removed from the incubator and allowed to equilibrate to room temperature for approximately 15 minutes. 10 microL of 6×CCF4/AM working dye solution (prepared according to instructions in the Live Blazer FRET-B/G Loading kit, Invitrogen cat #K1027) was added per well and incubated at room temperature for 2 hours in the dark. Fluorescence was measured on an EnVision fluorimetric plate reader, excitation 405 nm, emission 460 nm/535 nm. EC50 determinations were made from agonist-response curves analyzed with a curve fitting program using a 4-parameter logistic dose-response equation.

[2] = target: T1, human GPR119; experiment: GPR119 radioligand binding assay ([3H]-Compound A or [3H]-Compound B, HEK 293FT membranes); conditions: Ki from IC50 by Cheng-Prusoff, one value per run
Protocol: Cells were harvested via centrifugation (3,000×g, 10 minutes), washed once on DPBS (minus Ca++/Mg++), resuspended in 0.25M sucrose, 25 mM HEPES, 0.5 mM EDTA, pH 7.4 and frozen at −80 degrees Celsius.
The frozen cells were thawed on ice and centrifuged at 700×g (1400 rpm) for 10 minutes at 4 degrees Celsius. The cell pellet was resuspended in 20 mL phosphate-buffered saline, and centrifuged at 1400 rpm for 10 minutes. […] Cells were then lysed with 15 gentle strokes of a tight-fitting glass Dounce homogenizer. The homogenate was centrifuged at 1000×g (2200 rpm) for 10 minutes at 4 degrees Celsius. The supernatant was transferred into fresh centrifuge tubes on ice. The cell pellet was resuspended in homogenization buffer, and centrifuged again at 1000×g (2200 rpm) for 10 minutes at 4 degrees Celsius after which the supernatant was removed and the pellet resuspended in homogenization buffer. […] The solution was then centrifuged at 25,000×g (15000 rpm) for 20 minutes at 4 degrees Celsius, the supernatant was discarded, and the pellet was resuspended in fresh homogenization buffer (minus Benzonase and MgCl2). After repeating the 25,000×g centrifugation step, the final membrane pellet was resuspended in homogenization buffer and frozen at −80 degrees Celsius.
2 microL of each dilution was added to appropriate wells of a 96-well plate (each concentration in triplicate).
Membranes expressing GPR119 were thawed and diluted to a final concentration of 20 μg/100 microL per well in Binding Buffer, and 100 microL of diluted membranes were added to each well of 96-well plate.
The plate was incubated for 60 minutes w/shaking at room temperature (approximately 25 degrees Celsius). […] Filters were then washed six times using washing buffer (50 mM Tris-HCl, pH 7.5 kept at 4 degrees Celsius). The filter plates were then air-dyed at room temperature overnight.
IC50 determinations were made from competition curves, analyzed with a proprietary curve fitting program (SIGHTS) and a 4-parameter logistic dose response equation. Ki values were calculated from IC50 values, using the Cheng-Prusoff equation.

[3] = target: T1, human GPR119; experiment: cAMP HTRF functional assay (hGPR119 HEK-CRE beta-lactamase cells); format: cell-based; conditions: for Emax: read-out: Intrinsic Activity* (cAMP)
Protocol: GPR119 agonist activity was also determined with a cell-based assay utilizing an HTRF (Homogeneous Time-Resolved Fluorescence) cAMP detection kit (cAMP dynamic 2 Assay Kit; Cis Bio cat #62AM4PEC) that measures cAMP levels in the cell. The method is a competitive immunoassay between native cAMP produced by the cells and the cAMP labeled with the dye d2. The tracer binding is visualized by a Mab anti-cAMP labeled with Cryptate. The specific signal (i.e. energy transfer) is inversely proportional to the concentration of cAMP in either standard or sample.
Following 30 minutes incubation at room temperature, 5 microL of labeled d2 cAMP and 5 microL of anti-cAMP antibody (both diluted 1:20 in cell lysis buffer; as described in the manufacturers assay protocol) were added to each well of the assay plate. […] Raw data were converted to nM cAMP by interpolation from a cAMP standard curve (as described in the manufacturer's assay protocol) and EC50 determinations were made from an agonist-response curves analyzed with a curve fitting program using a 4-parameter logistic dose response equation.

[4] = hGPR119 HEK-CRE beta-lactamase cells, HTRF cAMP, one value per run
[5] = percent of maximal activity relative to standard GPR119 agonist (WO2005121121) at 10 μM, one value per run
[6] = **curve was extrapolated to 100% to calculate an EC50

Row | EC50 [1] | Intrinsic Activity* (B-lactamase) [1] | Emax [1] [%] | Ki ([2]; read-out: Human Binding Ki) | EC50 [3, 4] | Intrinsic Activity* (cAMP) [3, 5] | Emax [3, 5] [%] | EC50 [3, 6] | Emax [3, 6] [%] | SMILES | Ki ([2]; Human Binding Ki)
1 | 68 nM and 122 nM | 101% | 100 | 47 nM and 45 nM | 217 nM and 180 nM | 37% | 56 |  |  | CC(C)OC(=O)N1CCC(n2ncc(COc3ccc(S(=O)(=O)CCO)cc3F)c2C#N)CC1 [Example 1, Isopropyl 4-[5-cyano-4-({2-fluoro-4-[(2-hydroxyethyl)sulfonyl]-phenoxy}methyl)-1H-pyrazol-1-yl]piperidine-1-carboxylate] | 
2 | 9 nM and 17 nM | 93% and 84% | 100 | 10 nM and 19 nM and 13 nM and 40 nM | 29 nM and 27 nM | 63% | 60 |  |  | CC(C)OC(=O)N1CCC(n2ncc(COc3ccc(S(C)(=O)=O)cc3F)c2C#N)CC1 [Example 2, Isopropyl 4-(5-cyano-4-{[2-fluoro-4-(methylsulfonyl)phenoxy]methyl}-1H-pyrazol-1-yl)piperidine-1-carboxylate] | 
3 | 15 nM and 16 nM | 95% | 97 | 5 nM | 10 nM and 9 nM | 60% | 80 |  |  | CC(C)OC(=O)N1CCC(n2ncc(COc3ccc(-n4cnnn4)cc3)c2C#N)CC1 [Example 4, Isopropyl 4-(5-cyano-4-{[4-(1H-tetrazol-1-yl)phenoxy]methyl}-1H-pyrazol-1-yl)piperidine-1-carboxylate] | 
4 | 250 nM and 227 nM and 395 nM | 88% and 104% | 100 | 939 nM and 1710 nM | 442 nM and 650 nM | 34% | 39 |  |  | Cc1ncccc1OCc1cnn(C2CCN(C(=O)OC(C)C)CC2)c1C#N [Example 5, Isopropyl 4-(5-cyano-4-{[(2-methylpyridin-3-yl)oxy]methyl}-1H-pyrazol-1-yl)piperidine-1-carboxylate] | 
5 | 6 nM |  | 31 | > 6100 nM | > 10000 nM |  | 17 |  |  | Cc1ncccc1NCc1cnn(C2CCN(C(=O)OC(C)C)CC2)c1C#N [Example 6, Isopropyl 4-(5-cyano-4-{[(2-methylpyridin-3-yl)amino]methyl}-1H-pyrazol-1-yl)piperidine-1-carboxylate] | 
6 | 56 nM and 89 nM | 93% | 98 | 35 nM and 42 nM |  |  |  |  |  | CC(C)OC(=O)N1CCC(n2ncc(CCc3ccc(S(C)(=O)=O)cc3F)c2C#N)CC1 [Example 9, Isopropyl 4-(5-cyano-4-{2-[2-fluoro-4-(methylsulfonyl)phenyl]ethyl}-1H-pyrazol-1-yl)piperidine-1-carboxylate] | 
7 | 34 nM and 38 nM | 94% | 100 | 28 nM and 30 nM | 87 nM and 98 nM | 57% | 62 |  |  | CC(C)OC(=O)N1CCC(n2ncc(CNc3ccc(S(C)(=O)=O)cc3F)c2C#N)CC1 [Example 10, Isopropyl 4-[5-cyano-4-({[2-fluoro-4-(methylsulfonyl)phenyl]amino}methyl)-1H-pyrazol-1-yl]piperidine-1-carboxylate] | 
8 | 782 nM |  | 98 | 530 nM | 163 nM and 98 nM and 154 nM | 74% and 62% | 61 |  |  | CC(C)OC(=O)N1CCC(n2ncc(COc3ccc(F)cc3F)c2C#N)CC1 [Example 11, Isopropyl 4-{5-cyano-4-[(2,4-difluorophenoxy)methyl]-1H-pyrazol-1-yl}piperidine-1-carboxylate] | 
9 |  |  |  | 153 nM | 67 nM and 69 nM | 75% | 80 |  |  | CC(C)OC(=O)N1CCC(n2ncc(COc3ccc(-n4cccn4)cc3)c2C#N)CC1 [Example 18, Isopropyl 4-(4-((4-(1H-pyrazol-1-yl)phenoxy)methyl)-5-cyano-1H-pyrazol-1-yl)piperidine-1-carboxylate] | 
10 |  |  |  | 159 nM | 147 nM and 161 nM |  | 29 |  |  | CC(C)OC(=O)N1CCC(n2ncc(COc3ccc(-c4nnn(CCO)n4)cc3F)c2C#N)CC1 [Example 22, Isopropyl 4-(5-cyano-4-((2-fluoro-4-(2-(2-hydroxyethyl)-2H-tetrazol-5-yl)phenoxy)methyl)-1H-pyrazol-1-yl)piperidine-1-carboxylate] | 
11 |  |  |  | 150 nM |  |  |  | 1640 nM and 1470 nM | 100 | CC(C)OC(=O)N1CCC(n2ncc(COc3ccc(-c4nnnn4CCO)cc3F)c2C#N)CC1 [Example 23, Isopropyl 4-(5-cyano-4-((2-fluoro-4-(1-(2-hydroxyethyl)-1H-tetrazol-5-yl)phenoxy)methyl)-1H-pyrazol-1-yl)piperidine-1-carboxylate] | 
12 |  |  |  | 418 nM | 57 nM and 111 nM | 88% and 114% |  |  |  | Cn1nnnc1-c1ccc(OCc2cnn(C3CCN(C(=O)OC4(C)CC4)CC3)c2C#N)cc1 [Example 25, 1-Methylcyclopropyl 4-(5-cyano-4-{[4-(1-methyl-1H-tetrazol-5-yl)phenoxy]methyl}-1H-pyrazol-1-yl)piperidine-1-carboxylate] | 
13 |  |  |  |  | 254 nM |  | 62 |  |  | CC1(OC(=O)N2CCC(n3ncc(COc4ccc(C(N)=O)c(F)c4)c3C#N)CC2)CC1 [Example 26, 1-Methylcyclopropyl 4-(4-((4-carbamoyl-3-fluorophenoxy)methyl)-5-cyano-1H-pyrazol-1-yl)piperidine-1-carboxylate] | 

Row | SMILES | EC50 [1] | Intrinsic Activity* (B-lactamase) [1] | Emax [1] [%] | Ki ([2]; read-out: Human Binding Ki) | EC50 [3, 4] | Intrinsic Activity* (cAMP) [3, 5] | Emax [3, 5] [%] | EC50 [3, 6] | Emax [3, 6] [%] | Ki ([2]; Human Binding Ki)
14 | COP(=O)(OC)c1ccc(OCc2cnn(C3CCN(C(=O)OC(C)C)CC3)c2C#N)c(F)c1 [Example 7, Isopropyl 4-(5-cyano-4-{[4-(dimethoxyphosphoryl)-2-fluorophenoxy]methyl}-1H-pyrazol-1-yl)piperidine-1-carboxylate] | 622 nM |  | 98 |  | 225 nM and 256 nM and 169 nM | 74% and 85% | 80 |  |  | 293 nM and 283 nM
